These results are taken from DBAASP.

Converted amounts (≈) assume the structure as drawn.

As a reminder, the MIC is the lowest concentration found to suppress growth. Low values mean greater potency, high ones weaker potency.

Test systems include Streptococcus mutans; Escherichia coli; Micrococcus luteus; Pasteurella multocida; Listeria innocua; Bacillus cereus; Streptococcus uberis; Staphylococcus aureus; Leuconostoc lactis.
What all share (test): ≥ marks a high value that may be exact or a test limit, other limits are often not marked, values filed in µg/mL are converted to µM
Assay [1] deals with Staphylococcus aureus NCTC 8325.
The test system of assay [2] is Escherichia coli ATCC 25922.
In assay [3] the test system is Candida albicans ATCC 90028.
Assay [4] has as its system Staphylococcus aureus ATCC 25923.
The subject of assay [5] is Escherichia coli ATCC 25726.
Assay [6] deals with Staphylococcus epidermidis.

As to `CC(C)C[C@H](NC(=O)[C@H](Cc1c[nH]c2ccccc12)NC(=O)[C@H](CCCCN)NC(=O)[C@H](CC(C)C)NC(=O)[C@H](Cc1ccccc1)NC(=O)[C@@H](NC(=O)[C@H](CCCCN)NC(=O)[C@@H](N)Cc1ccccc1)[C@@H](C)O)C(=O)N[C@@H](Cc1cnc[nH]1)C(=O)N[C@@H](CCCN=C(N)N)C(=O)N[C@@H](Cc1ccccc1)C(N)=O` [FKTFLKWLHRF], the MIC against Streptococcus mutans came to 15.8 µM (≈ 24 µg/mL).

For `CC[C@H](C)[C@H](NC(=O)CNC(=O)[C@H](CO)NC(=O)[C@H](CC(C)C)NC(=O)[C@H](CC(C)C)NC(=O)[C@H](CCCCN)NC(=O)CNC(=O)[C@H](CC(C)C)NC(=O)[C@@H](NC(=O)[C@@H]1CCCN1C(=O)[C@H](CC(C)C)NC(=O)[C@@H](N)Cc1ccccc1)[C@@H](C)CC)C(=O)N[C@@H](CC(C)C)C(N)=O` [FLPILGKLLSGIL], the MIC in assay [1] was 15 µM (≈ 20.7 µg/mL); in [2], above 100 µM.

`CC[C@H](C)[C@H](NC(=O)[C@H](CC(C)C)NC(=O)[C@H](CCCCN)NC(=O)[C@H](CCCCN)NC(=O)[C@@H](NC(=O)[C@H](C)NC(=O)[C@H](CCCCN)NC(=O)[C@@H](NC(=O)[C@H](C)NC(=O)[C@H](Cc1cnc[nH]1)NC(=O)[C@@H]1CCCN1C(=O)[C@@H](NC(=O)[C@H](CC(C)C)NC(=O)[C@@H]1CCCN1C(=O)[C@H](CCCCN)NC(=O)[C@@H](NC(=O)[C@H](Cc1ccc(O)cc1)NC(=O)[C@H](CCCCN)NC(=O)[C@H](CCSC)NC(=O)[C@H](Cc1ccccc1)NC(=O)CN)[C@@H](C)CC)[C@@H](C)CC)C(C)C)[C@@H](C)CC)C(=O)O` [GFMKYIKPLIPHAVKAIKKLI]: the MIC in [1] was at least 50 µM; in assay [3] it was at least 200 µM; in assay [2], 6.25 µM (≈ 15.1 µg/mL).

Take `CC[C@H](C)[C@H](NC(=O)CN)C(=O)N[C@@H](CC(C)C)C(=O)N[C@@H](CC(=O)O)C(=O)N[C@@H](CO)C(=O)N[C@@H](Cc1ccccc1)C(=O)N[C@@H](CCCCN)C(=O)NCC(=O)N[C@H](C(=O)N[C@@H](C)C(=O)N[C@@H](CCCCN)C(=O)NCC(=O)N[C@H](C(=O)N[C@@H](C)C(=O)N[C@@H](CCCCN)C(=O)N[C@@H](CC(=O)O)C(=O)N[C@@H](CC(C)C)C(=O)N[C@@H](C)C(=O)NCC(=O)N[C@@H](CCCCN)C(=O)N[C@@H](CC(C)C)C(=O)N[C@@H](CC(C)C)C(=O)N[C@@H](CC(=O)O)C(=O)N[C@@H](CCCCN)C(=O)N[C@@H](CC(C)C)C(=O)N[C@@H](CCCCN)C(=O)N[C@H]1CSSC[C@@H](C(=O)O)NC(=O)CNC(=O)[C@H]([C@@H](C)O)NC(=O)[C@H]([C@@H](C)CC)NC(=O)[C@H](CCCCN)NC1=O)C(C)C)C(C)C` [GILDSFKGVAKGVAKDLAGKLLDKLKCKITGC]: the MIC was 11 µM (≈ 36.2 µg/mL) in assay [1]; at least 150 µM in assay [3]; 50 µM (≈ 164 µg/mL) in assay [4]; 4 µM (≈ 13.2 µg/mL) in assay [2]; 25 µM (≈ 82.2 µg/mL) in assay [5].

Consider `CC[C@H](C)[C@H](NC(=O)CNC(=O)CNC(=O)[C@@H](NC(=O)[C@H](Cc1ccccc1)NC(=O)[C@H](CC(C)C)NC(=O)[C@H](CO)NC(=O)[C@H](CC(C)C)NC(=O)[C@@H](NC(=O)CN)[C@@H](C)CC)[C@@H](C)O)C(=O)N[C@@H](CCCCN)C(=O)N[C@@H](C)C(=O)N[C@@H](CC(C)C)C(=O)NCC(=O)N[C@@H](CCCCN)C(=O)N[C@H](C(=O)N[C@@H](CC(C)C)C(=O)N[C@@H](Cc1ccccc1)C(=O)N[C@@H](CCCCN)C(=O)N[C@@H](CCSC)C(=O)N[C@@H](C)C(=O)NCC(=O)N[C@@H](CCCCN)C(=O)N[C@@H](C)C(=O)NCC(=O)N[C@@H](C)C(=O)N[C@@H](CCC(=O)O)C(=O)N[C@@H](Cc1cnc[nH]1)C(=O)N[C@@H](CC(C)C)C(=O)N[C@@H](C)C(=O)N[C@H]1CSSC[C@@H](C(=O)O)NC(=O)[C@H](CCC(N)=O)NC(=O)[C@H](CC(N)=O)NC(=O)[C@H]([C@@H](C)O)NC(=O)[C@H](C)NC(=O)[C@H](CCCCN)NC1=O)[C@@H](C)O` [GILSLFTGGIKALGKTLFKMAGKAGAEHLACKATNQC], for which the results for the MIC in assay [1], in [3] and in [2] were 3 µM (≈ 11.2 µg/mL), at least 53 µM and 6 µM (≈ 22.5 µg/mL), respectively.

For the compound `CC[C@H](C)[C@H](NC(=O)[C@@H](NC(=O)[C@H](CCCCN)NC(=O)[C@H](C)NC(=O)[C@@H](NC(=O)[C@H](CCCCN)NC(=O)[C@H](CCCCN)NC(=O)[C@@H](NC(=O)[C@@H](NC(=O)[C@H](CCCCN)NC(=O)[C@H](Cc1ccccc1)NC(=O)[C@H](CC(C)C)NC(=O)CN)C(C)C)[C@@H](C)CC)C(C)C)C(C)C)C(=O)N[C@@H](CCCCN)C(=O)N[C@@H](CCCCN)C(=O)N[C@@H](CC(C)C)C(N)=O` [GLFKVIKKVAKVIKKL], the MIC is 55.2 µM (≈ 99.9 µg/mL) against Escherichia coli; 13.8 µM (≈ 25 µg/mL) in the assay with Micrococcus luteus; at least 55.2 µM against Pasteurella multocida; 13.8 µM (≈ 25 µg/mL) against Listeria innocua; 6.62 µM (≈ 12 µg/mL) in assay [6]; 27.6 µM (≈ 50 µg/mL) in the assay on Bacillus cereus. In addition, the minimal inhibitory concentration (MIC) stood at 27.6 µM (≈ 50 µg/mL) in the assay on Streptococcus uberis, 27.6 µM (≈ 50 µg/mL) in the assay with Staphylococcus aureus and 3.31 µM (≈ 6 µg/mL) with Leuconostoc lactis.

For `CC[C@H](C)[C@@H]1NC(=O)[C@H](CCCCN)NC(=O)[C@@H](NC(=O)[C@H](CCCCN)NC(=O)[C@H](CC(C)C)NC(=O)[C@H](CCCCN)NC(=O)[C@H](CC(=O)O)NC(=O)[C@H](CC(C)C)NC(=O)[C@H](CCSC)NC(=O)[C@H](CO)NC(=O)[C@H](C)NC(=O)[C@H](C)NC(=O)[C@@H](NC(=O)[C@@H](NC(=O)[C@H](CCCCN)NC(=O)[C@H](C)NC(=O)[C@@H](NC(=O)CNC(=O)[C@H](CCCCN)NC(=O)[C@@H](NC(=O)[C@@H](NC(=O)[C@H](CC(=O)O)NC(=O)[C@H](CC(C)C)NC(=O)[C@H](CC(C)C)NC(=O)CN)[C@@H](C)O)[C@@H](C)CC)C(C)C)[C@@H](C)O)C(C)C)CSSC[C@@H](C(=O)O)NC(=O)CNC(=O)[C@H](CO)NC1=O` [GLLDTIKGVAKTVAASMLDKLKCKISGC], the MIC in assay [1] is 2 µM (≈ 5.73 µg/mL); in assay [3] it was at least 35 µM; in assay [2], 2 µM (≈ 5.73 µg/mL).

With `CC[C@H](C)[C@H](NC(=O)[C@@H](NC(=O)[C@H](C)NC(=O)[C@@H](NC(=O)[C@@H](NC(=O)[C@H](Cc1cnc[nH]1)NC(=O)[C@H](C)NC(=O)[C@H](CC(C)C)NC(=O)[C@@H](NC(=O)[C@H](Cc1cnc[nH]1)NC(=O)[C@H](CCCCN)NC(=O)[C@H](C)NC(=O)[C@@H](NC(=O)[C@H](CO)NC(=O)CNC(=O)[C@H](CC(C)C)NC(=O)[C@@H](NC(=O)[C@H](CO)NC(=O)[C@H](CC(C)C)NC(=O)[C@H](CC(C)C)NC(=O)CN)C(C)C)C(C)C)C(C)C)C(C)C)C(C)C)C(C)C)C(=O)N[C@@H](C)C(=O)N[C@@H](CCC(=O)O)C(=O)N[C@@H](Cc1cnc[nH]1)C(=O)N[C@@H](CC(C)C)C(N)=O` [GLLSVLGSVAKHVLAHVVAVIAEHL], the MIC was above 39.5 µM against Escherichia coli; at least 39.5 µM in the assay on Micrococcus luteus; at least 39.5 µM against Pasteurella multocida; at least 39.5 µM in the assay with Listeria innocua; at least 39.5 µM in assay [6]; at least 39.5 µM in the assay on Bacillus cereus. In addition, the values for the MIC in the assay on Streptococcus uberis, against Staphylococcus aureus and against Leuconostoc lactis were at least 39.5 µM, above 39.5 µM and 9.87 µM (≈ 25 µg/mL), respectively.

With `CC[C@H](C)[C@H](NC(=O)[C@H](CC(C)C)NC(=O)[C@H](CC(=O)O)NC(=O)CNC(=O)[C@@H](NC(=O)CN)C(C)C)C(=O)N[C@@H](CCCN=C(N)N)C(=O)N[C@@H](CCCCN)C(=O)N[C@@H](C)C(=O)N[C@H](C(=O)N[C@@H](CO)C(=O)N[C@H](C(=O)N[C@H](C(=O)N[C@@H](CCCCN)C(=O)N[C@@H](CC(N)=O)C(=O)N[C@H](C(=O)N[C@H](C(N)=O)C(C)C)[C@@H](C)CC)[C@@H](C)CC)C(C)C)C(C)C` [GVGDLIRKAVSVIKNIV], the MIC is above 56.1 µM in the assay on Escherichia coli; at least 56.1 µM with Pasteurella multocida; 14 µM (≈ 25 µg/mL) in the assay with Listeria innocua; 7.02 µM (≈ 12.5 µg/mL) in assay [6]; 14 µM (≈ 25 µg/mL) with Bacillus cereus; 7.02 µM (≈ 12.5 µg/mL) in the assay on Streptococcus uberis. In addition, the MIC against Staphylococcus aureus turned out to be 28.1 µM (≈ 50 µg/mL); with Leuconostoc lactis, 1.68 µM (≈ 3 µg/mL).

As for `CC[C@H](C)[C@H](NC(=O)[C@H](Cc1ccccc1)NC(=O)[C@H](CCCCN)NC(=O)[C@@H](NC(=O)[C@H](Cc1ccccc1)NC(=O)[C@H](CCC(N)=O)NC(=O)[C@H](CCCCN)NC(=O)[C@@H](N)CC(C)C)C(C)C)C(=O)N[C@@H](Cc1cnc[nH]1)C(=O)N[C@@H](CCCN=C(N)N)C(=O)N[C@@H](Cc1ccccc1)C(N)=O` [LKQFVKFIHRF], the MIC with Streptococcus mutans is 16.4 µM (≈ 24 µg/mL). In other words, the double-digit micromolar range.

As to `CC[C@H](C)[C@H](NC(=O)[C@H](CCCN=C(N)N)NC(=O)[C@H](CCCCN)NC(=O)[C@H](CC(C)C)NC(=O)[C@H](C)NC(=O)[C@@H](N)CCCN=C(N)N)C(=O)N[C@@H](CCCCN)C(=O)N[C@@H](Cc1cnc[nH]1)C(=O)N[C@H](C(=O)N[C@@H](CC(C)C)C(=O)N[C@@H](CCCCN)C(=O)O)C(C)C` [RALKRIKHVLK], the MIC against Streptococcus mutans is at least 91.8 µM.

For the compound `CC(C)C[C@H](NC(=O)[C@H](Cc1cnc[nH]1)NC(=O)[C@H](CCC(N)=O)NC(=O)[C@H](Cc1ccccc1)NC(=O)[C@H](CCC(=O)O)NC(=O)[C@@H](NC(=O)[C@H](CC(C)C)NC(=O)[C@H](CC(C)C)NC(=O)[C@@H](N)Cc1ccc(O)cc1)[C@@H](C)O)C(=O)N[C@@H](Cc1ccccc1)C(=O)N[C@@H](CCCCN)C(=O)O` [YLLTEFQHLFK], the MIC against Streptococcus mutans was at least 86.9 µM.
